Assay [1] addresses NK1 (Homo sapiens, UniProt P14210). As to the kind of experiment: 1H-15N TROSY-HSQC NMR chemical shift titration of 15N-labelled NK1. It counts as binding. Also noted: made in house; host or cells: Pichia pastoris. The method, then:
Ligand screening was performed by monitoring the chemical shift variations in ^1H-^15N TROSY-HSQC NMR spectra of the uniformly [^15N]-labelled NK1 protein (Fragai et al. 2015, in prep.) upon the addition of increasing concentrations of the investigated compounds.[43]–[45] The experiments were performed using 0.18 mM protein samples in 25 mM Tris, 100 mM NaCl and 0.01% sodium azide, at pH 7.2 with 10% D2O. The spectra were recorded at 310 K on a Bruker AVANCE 900 MHz spectrometer equipped with a TXI cryo-probe. Sample solutions were prepared from 1 M or 100 mM DMSO stock solutions of the ligands. The dissociation constant values (KD) were calculated by plotting the weighted average ^1H and ^15N chemical shifts of the residues experiencing significant variations as a function of ligand concentration added during the titration and considering the one site binding model.[46]

Assay [2] relates to MET downstream signalling (Erk 1/2, Akt) in Vero cells. As to the kind of experiment: MET, Erk1/2 and Akt phosphorylation assay in NK1-stimulated Vero cells (Western blot). It counts as cell-based. The conditions noted are these: Vero cells stimulated with NK1; compound 1 mM (lane 5), 0.1% DMSO. The method, then:
We evaluated the effect of piperazine-like compounds and MB605 on Vero cells by assessing MET, Erk 1/2 and Akt phosphorylation in response to stimulation using […] NK1. MB605 was dissolved in DMSO, which limited the range of concentrations tested to ≤1 mM in order to avoid solvent effects on cell function/viability. The water-soluble piperazine-like compounds, in contrast, could be tested at concentrations up to 100 mM.
Fig. 6 Biological activity of the piperazine-like compounds and MB605. (a–e) Vero cells expressing the receptor endogenously on their cell surface were stimulated with HGF/SF or NK1 and phosphorylation of MET and downstream targets Akt and Erk1/2 was analysed. Piperazine-like compounds HEPES (a), (H)EPPS (b), MES (c), MOPS (d) and CAPS (e) were tested at 100 mM (lanes 4), 10 mM (lanes 5), 1 mM (lanes 6) and 100 μM (lanes 7) concentration in the presence of 1 nM NK1. To control for activating or inhibiting effects of the compounds independently of MET, piperazine-like compounds were tested on cells at 100 mM without stimulation by NK1 (lanes 3). Biological activity of MB605 (f) was investigated at 1 mM (lane 5), 100 μM (lane 6) and 10 μM (lane 7) in the presence of a constant concentration of DMSO (0.1%). A solvent control (0.1% DMSO, lane 3) was included in order to account for the effect of DMSO on the cells. A positive control (1 nM NK1 in the presence of 0.1% DMSO) is shown in lane 4. In all experiments, un-stimulated cells served as negative control (lanes 1) while cells stimulated with 1 nM NK1 served as positive control (lanes 2).
The ability of MB605 and the piperazine-like compounds to inhibit MET, Erk and Akt phosphorylation in the presence of NK1 was tested using mammalian Vero cells as described by Ferraris et al.[47] and further details are given in the ESI ^† section of the manuscript. […]
For MET, Erk1/2 and Akt phosphorylation assays, Vero cells were seeded at 2.1 × 10^5 cells we ll -1 (2 ml we ll -1) in 6-well plates and grown to 90% conf luence in 10% FCS/DMEM media and then switched to serum-free medium (to avoid any growth f actors present in the serum).
24 hours post starvation the cells were stimulated for 5 min at 37°C with each individual piperazine -like compounds as well as with NK1 (1 nM) pre-incubated with different concentrations of the piperazine- like compounds (100 mM, 10 mM, 1 mM and 100 μM) or MB605 (1 mM, 100 μM and 10 μM). Stimulations with either 0. 1% DMS O or 1 nM of NK1 […]
solution were used as a negative and a positive control, respectively. The cells were then washed in PBS buffer, lysed on ice f or 30 min and frozen at -80 °C until further analysis. For
For orientation: In western blotting, separated proteins are transferred to a membrane and probed.

Assay [3] addresses T1, lysine-binding pocket of the kringle domain of NK1 (Homo sapiens, UniProt P14210).
T1 construct: made in house; host or cells: Pichia pastoris
Nature of the assay: Soaking into NK1 apo crystals, X-ray crystallography. The conditions noted are these: soaked into NK1 apo crystals. The method, then:
Next, three classes of piperazine-like sulphonated compounds containing piperazine ((H)EPPS and PIPES), morpholine (MES and MOPS), or cyclohexane (CHES and CAPS) rings were studied for their binding to NK1 (Table 1), alongside another five sulphonated compounds selected from a chemical fragment library (Table 2).
NK1 buffered in 150 mM NaCl, 50 mM Tris, pH 7.5 (apo-NK1 and all soaking experiments) was concentrated to ∼20 mg mL^–1 using a Vivaspin device with a 10 kDa cut-off membrane (Sartorius Biolab). Crystallisation was carried out in Linbro plates by the vapour diffusion hanging drop technique using a protein : precipitant ratio of 1 : 1 at 20 °C. Previously NK1 has been crystallised in 18% PEG 4000, 200 mM sodium acetate and 150 mM Tris pH 8.5 as precipitant.[19] Here final crystallisation conditions (19% PEG 4000, 200 mM sodium acetate and 150 mM Tris pH 7.5) were optimised around those to achieve high-resolution apo structure. Details of compound soaking, X-ray data collection and structure determination are given in the ESI ^† section of the manuscript. […]
For this, 1 M stock solutions were prepared in DMSO (fragments) or water (piperazine- like compounds) and the pH adjusted to a value within their buffering range with either HCl or NaOH. The seven piperazine- like compounds and their respective pH are: HEPES (pH 7.6), (H)EPPS (pH 7.4), PIPES (pH 7.0), MES (pH 5.8), MOPS (pH 7.2), CHES (pH 8.6) and CAPS (pH 9.7). Secondary stocks of the compounds at 50 mM were prepared in the […]
respective mother liquor and soaked for up to 48 hours.
MB605 was solubilised in 50% DMSO at 20 mM concentration (1% f inal DMSO concentration in the drop) in order to minimize adverse effects of DMSO on the protein crystal. 25% ethylene glycol was used as the cryoprotective agent.
X-ray data collection and processing
X-ray datasets were collected either at the European Synchrotron Radiation Facility (ESRF, Grenoble, France), the Diamond Light Source (DLS, Oxford, UK) or in-house using the X8 PROTEUM (Bruker AXS) at the Department of Biochemistry, University of Cambridge.
Datasets of at least 180° were collected. Raw data collected at synchrotrons were integrated, merged, scaled and reduced using DENZO and […].2 Raw data […]
collected in- house were integrated, merged, scaled and reduced using the PROTEUM 2 software package .3 The CCP4 suite of crystallographic programs (Collaborative

Structures are written as SMILES. pKd: −log10 of the molar value.

What is called pKd is −log10 of the Kd, conventionally taken in molar units.

NK1, sequence (P14210 32-210 isoform P14210-6 limits assumed): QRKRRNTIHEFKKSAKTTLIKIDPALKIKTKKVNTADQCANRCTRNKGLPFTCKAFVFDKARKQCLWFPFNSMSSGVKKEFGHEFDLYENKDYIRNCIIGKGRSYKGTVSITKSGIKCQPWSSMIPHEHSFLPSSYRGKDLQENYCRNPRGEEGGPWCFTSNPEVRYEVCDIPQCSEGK
T1 sequence (P14210 32-210 isoform P14210-6 limits assumed): as above

For the compound `O=C(O)CCc1ccco1` [MB605], in assay [1] (1H-15N TROSY-HSQC, residues in and around the lysine-binding pocket), the “variation in chemical shifts for NK1 residues” value is “showed variation in chemical shifts”. In addition, the negative logarithm of the Kd (pKd) in assay [1] (NMR chemical shift titration, read-out: KD) was 3.96. Also, in assay [2], the “Activity on NK1-induced MET, Erk 1/2 and Akt phosphorylation” value is listed as “active”. The “binding in the lysine-binding pocket (crystal structure)” value in assay [3] is reported as “binds in the lysine-binding pocket”.

The values are drawn from publication PMC6054100, “Exploring the chemical space of the lysine-binding pocket of the first kringle domain of hepatocyte growth factor/scatter factor (HGF/SF) yields a new class of inhibitors of HGF/SF-MET binding” (Chemical Science, 2015).
